# Active and inactive are the calls of the source.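 Rule for the calls: active = at least one rat sex group has a carcinogenic potency value and tumor site recorded; inconclusive = only rat studies were judged inadequate by the national testing program; inactive = no potency or tumor site, with negative rat experiments.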
# System: rat chronic carcinogenicity bioassay, TD50
# Experiment: DSSTox (CPDBAS) Carcinogenic Potency Database Summary Rat Bioassay Results
# Details: for Potency: stronger effect = lower value
# How it was run: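 The activity score maps log10(1/TD50_Rat_mmol) linearly onto 1–100; actives without a computed TD50, such as mixtures, receive 50. Source data are chronic rat carcinogenicity tests, using the most positive experiment for each sex.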
# [1] = TD50_Rat_Note: no positive results, TargetSites_Rat_Female: no positive results
# [2] = TD50_Rat_Note: no positive results
# [3] = TD50_Rat_Note: TD50 is harmonic mean of more than one positive test, TargetSites_Rat_Female: mammary gland
# [4] = TargetSites_Rat_Female: no positive results
# [5] = TargetSites_Rat_BothSexes: all tumor bearing animals
structure (smiles),measurement,setting,value
Clc1ccc(-c2cccc(Cl)c2Cl)c(Cl)c1,Potency,"TD50_Rat_Note: TD50 is harmonic mean of more than one positive test, TD50_Rat_mmol was not calculated for this mixture, but Activiity S, TargetSites_Rat_Female: liver",11.8 mg/kg/day
Cc1ccc2cc3c(ccc4ccccc43)c3c2c1CC3,Potency,"TD50_Rat_Note: TD50 is harmonic mean of more than one positive test, harmonic mean of TD50 includes a value for upper 99% confidence li, TargetSites_Rat_Female: mammary gland",0.491 mg/kg/day
C=CCc1ccc(O)c(OC)c1,outcome,[1],inactive; no positive results
C1CO1,Potency,"TD50_Rat_Note: TD50 is harmonic mean of more than one positive test, greater than ten-fold variation among TD50 values for positive res, TargetSites_Rat_Female: nervous system, stomach",21.3 mg/kg/day
Clc1ccc(Sc2cc(Cl)c(Cl)cc2Cl)cc1,outcome,[1],inactive; no positive results
CCC1C(=O)OCC1Cc1cncn1C (stereo unspecified),outcome,[1],inactive; no positive results
O=S1(=O)N=C(O)c2ccccc21,outcome,[2],inactive; no positive results
CCN(CC)CCCNC(=O)Cn1ncc(-c2ccccc2)c1-c1ccccc1,outcome,[1],inactive; no positive results
CCOC(=O)CC(SP(=S)(OC)OC)C(=O)OCC (stereo unspecified),outcome,[1],inactive; no positive results
[K+],Potency,"TD50_Rat_Note: TD50 is harmonic mean of more than one positive test, TargetSites_Rat_Female: oral cavity",440 mg/kg/day
[O]N=O,outcome,[2],inactive; no positive results
Nc1ccc(-c2ccc(N)c(Cl)c2)cc1Cl,Potency,[3],28.1 mg/kg/day
CC(=O)Nc1nc(-c2ccc([N+](=O)[O-])o2)cs1,Potency,[3],17.8 mg/kg/day
CC(=O)OCc1ccccc1,outcome,[1],inactive; no positive results
O=c1oc2c(O)c(O)cc3c(=O)oc4c(O)c(O)cc1c4c23,outcome,[1],inactive
FC(F)(Cl)Cl,outcome,[1],inactive; no positive results
O=C1C2CC=CCC2C(=O)N1SC(Cl)(Cl)Cl (stereo unspecified),Potency,"TD50_Rat_Note: TD50 is harmonic mean of more than one positive test, TargetSites_Rat_Female: uterus",2080 mg/kg/day
NC(=O)CI,outcome,[2],inactive; no positive results
O=C(O)[C@@H]1[C@H](C(=O)O)[C@@]2(Cl)C(Cl)=C(Cl)[C@]1(Cl)C2(Cl)Cl,Potency,"TD50_Rat_Note: TD50 is harmonic mean of more than one positive test, TargetSites_Rat_Female: liver",40.8 mg/kg/day
Cc1ccc(S(=O)(=O)NC(=O)NN2CCCCCC2)cc1,outcome,[1],inactive; no positive results
Nc1nc(N)nc(-c2ccc([N+](=O)[O-])o2)n1,Potency,TargetSites_Rat_Female: mammary gland,1.71 mg/kg/day
FC(Cl)(Cl)Cl,outcome,[1],inactive; no positive results
Nc1cc([N+](=O)[O-])ccc1O,Potency,[4],839 mg/kg/day
Nc1ncc([N+](=O)[O-])s1,Potency,"TargetSites_Rat_Female: kidney, lung, mammary gland",44.6 mg/kg/day
O=NN1CCCCO1,Potency,[5],24.3 mg/kg/day
OCCN(CCO)CCO,outcome,[1],inactive; no positive results
Nc1ccc2cc3ccc(N)cc3nc2c1,outcome,"TD50_Rat_Note: only experiment is NCI/NTP bioassay inadequate, TargetSites_Rat_Female: NTP bioassay inadequate",ntp bioassay inadequate
C=C/C=N/O,outcome,[1],inactive; no positive results
O=[N+]([O-])c1cccc2ccccc12,outcome,[1],inactive; no positive results
C=CCOCC1CO1 (stereo unspecified),outcome,[1],inactive; no positive results
S=c1[nH]c2ccccc2s1,Potency,"TD50_Rat_Note: TD50 is harmonic mean of more than one positive test, TargetSites_Rat_Female: adrenal gland, pituitary gland",344 mg/kg/day
CCCCOCCO,outcome,[1],inactive; no positive results
OCc1ccco1,Potency,[4],9.6 mg/kg/day
COC(C)(C)C,Potency,"TD50_Rat_Note: TD50 is harmonic mean of more than one positive test, TargetSites_Rat_Female: hematopoietic system",702 mg/kg/day
O=NN1CN2CN(C1)CN(N=O)C2,outcome,[2],inactive; no positive results
CC1CO1 (stereo unspecified),Potency,"TD50_Rat_Note: TD50 is harmonic mean of more than one positive test, greater than ten-fold variation among TD50 values for positive res, TargetSites_Rat_Female: mammary gland, nasal cavity, stomach",74.4 mg/kg/day
O=NO,Potency,"TD50_Rat_Note: TD50 is harmonic mean of more than one positive test, TargetSites_Rat_Female: liver, TargetSites_Rat_BothSexes: hematopoietic system",167 mg/kg/day
Cc1ccc([N+](=O)[O-])cc1N,outcome,[1],inactive; no positive results
CN(C)N=Nc1ccccc1,Potency,TargetSites_Rat_BothSexes: nervous system,2.31 mg/kg/day
O=S(=O)(O)c1cc(S(=O)(=O)O)c2c(N=Nc3ccc(S(=O)(=O)O)c4ccccc34)c(O)ccc2c1,Potency,[5],24500 mg/kg/day
CCCCC(C)(O)C/C=C/[C@H]1[C@H](O)CC(=O)[C@@H]1CCCCCCC(=O)OC (stereo partly specified),outcome,[1],inactive; no positive results
Cc1ccc(S(=O)(=O)Oc2ccc(N=Nc3ccc(-c4ccc(N=Nc5c(O)ccc6cc(S(=O)(=O)O)cc(S(=O)(=O)O)c56)c(C)c4)cc3C)cc2)cc1,Potency,"TD50_Rat_Note: TD50 is harmonic mean of more than one positive test, TargetSites_Rat_Female: clitoral gland, ear Zymbals gland, large intestine, liver, lung, oral cavity, skin, small intestine",3.89 mg/kg/day
CCN(CC)CCOc1ccc(C(O)(Cc2ccc(OC)cc2)c2ccccc2)cc1 (stereo unspecified),outcome,[1],inactive
C=CCN(CC(O)CO)N=O (stereo unspecified),Potency,"TargetSites_Rat_Female: esophagus, nasal cavity",0.825 mg/kg/day
Cc1ccc(Cl)cc1N,outcome,[1],inactive; no positive results
O=P(OC(CCl)CCl)(OC(CCl)CCl)OC(CCl)CCl,Potency,"TD50_Rat_Note: TD50 is harmonic mean of more than one positive test, TargetSites_Rat_Female: kidney, liver",46.4 mg/kg/day
CC(C)CON=O,Potency,"TD50_Rat_Note: TD50 is harmonic mean of more than one positive test, TargetSites_Rat_Female: lung",54.1 mg/kg/day
O=C1CCCCC1,outcome,[1],inactive; no positive results
C=CCc1ccc2c(c1)OCO2,Potency,"TD50_Rat_Note: TD50 is harmonic mean of more than one positive test, TargetSites_Rat_BothSexes: liver",441 mg/kg/day
C=C1C[C@@]23CC[C@H]4[C@@](C)(CCC[C@@]4(C)C(=O)O[C@@H]4O[C@H](CO)[C@@H](O)[C@H](O)[C@H]4O)[C@@H]2CC[C@]1(O[C@@H]1O[C@H](CO)[C@@H](O)[C@H](O)[C@H]1O[C@@H]1O[C@H](CO)[C@@H](O)[C@H](O)[C@H]1O)C3,outcome,[1],inactive; no positive results
CN(C)C(=O)Nc1ccc(Cl)cc1,Potency,[4],131 mg/kg/day

# From PubChem BioAssay AID1208 (EPA DSSTox, 2008)
